Source: publication PMC9822402, “Investigation on Hydrazonobenzenesulfonamides as Human Carbonic Anhydrase I, II, IX and XII Inhibitors” (Molecules, 2022)

Tests used:
hCA II = biological target: T1, hCA II (Homo sapiens, UniProt P00918); assay: stopped-flow CO2 hydrase assay; assay type: biochemical; conditions: read-out: KI (nM) ^1 / CAII
T1 construct: gene CA2; recombinant, obtained in-house

hCA I = biological target: T2, hCA I (Homo sapiens, UniProt P00915); assay: stopped-flow CO2 hydrase assay; assay type: biochemical; conditions: read-out: KI (nM) ^1 / CAI
T2 construct: gene CA1; recombinant, obtained in-house
T2 sequence (P00915 2-261): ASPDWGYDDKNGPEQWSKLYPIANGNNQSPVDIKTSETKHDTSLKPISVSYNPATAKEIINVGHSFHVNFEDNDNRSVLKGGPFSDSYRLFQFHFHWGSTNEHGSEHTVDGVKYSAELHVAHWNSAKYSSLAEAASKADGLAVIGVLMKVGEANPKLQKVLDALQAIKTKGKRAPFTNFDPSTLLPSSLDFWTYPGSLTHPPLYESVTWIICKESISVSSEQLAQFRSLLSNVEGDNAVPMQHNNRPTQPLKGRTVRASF

| SMILES | Ki (hCA II) [nM] | Ki (hCA I) [nM] |
| --- | --- | --- |
| COc1ccc(/C=N/NC(=O)C2CCN(C(=O)c3ccc(S(N)(=O)=O)cc3)CC2)cc1OC [compound 11, (E)-4-(4-(2-(3,4-dimethoxybenzylidene)hydrazinecarbonyl)piperidine-1-carbonyl)benzenesulfonamide] | 55.1 | 344 |
| NS(=O)(=O)c1ccc(C(=O)N2CCC(C(=O)N/N=C/c3ccc(Cl)cc3Cl)CC2)cc1 [compound 25, (E)-4-(4-(2-(2,4-dichlorobenzylidene)hydrazinecarbonyl)piperidine-1-carbonyl)benzenesulfonamide] | 6.65 | 336 |
| COc1cc(OC)c(OC)cc1/C=N/NC(=O)C1CCN(C(=O)c2ccc(S(N)(=O)=O)cc2)CC1 [compound 13, (E)-4-(4-(2-(2,4,5-trimethoxybenzylidene)hydrazinecarbonyl)piperidine-1-carbonyl)benzenesulfonamide] | 3.78 | – |
| COc1ccc(/C=N/NC(=O)C2CCN(C(=O)c3ccc(S(N)(=O)=O)cc3)CC2)c(Br)c1OC [compound 15, (E)-4-(4-(2-(2-bromo-3,4-dimethoxybenzylidene)hydrazinecarbonyl)piperidine-1-carbonyl)benzenesulfonamide] | 65.5 | 1540 |
| COc1ccc(OC)c(/C=N/NC(=O)C2CCN(C(=O)c3ccc(S(N)(=O)=O)cc3)CC2)c1 [compound 12, (E)-4-(4-(2-(2,5-dimethoxybenzylidene)hydrazinecarbonyl)piperidine-1-carbonyl)benzenesulfonamide] | 1.75 | 24.3 |
| COc1ccc(/C=N/NC(=O)C2CCN(C(=O)c3ccc(S(N)(=O)=O)cc3)CC2)c(OC)c1 [compound 10, (E)-4-(4-(2-(2,4-dimethoxybenzylidene)hydrazinecarbonyl)piperidine-1-carbonyl)benzenesulfonamide] | 160 | 1890 |
| NS(=O)(=O)c1ccc(C(=O)N2CCC(C(=O)N/N=C/c3c(Cl)cccc3Cl)CC2)cc1 [compound 27, (E)-4-(4-(2-(2,6-dichlorobenzylidene)hydrazinecarbonyl)piperidine-1-carbonyl)benzenesulfonamide] | 3.57 | 24.6 |
| COc1cc(/C=N/NC(=O)C2CCN(C(=O)c3ccc(S(N)(=O)=O)cc3)CC2)cc(OC)c1OC [compound 14, (E)-4-(4-(2-(3,4,5-trimethoxybenzylidene)hydrazinecarbonyl)piperidine-1-carbonyl)benzenesulfonamide] | 67.6 | 384 |
| COc1c(/C=N/NC(=O)C2CCN(C(=O)c3ccc(S(N)(=O)=O)cc3)CC2)ccc2ccccc12 [compound 17, (E)-4-(4-(2-((1-methoxynaphthalen-2-yl)methylene)hydrazinecarbonyl)piperidine-1-carbonyl)benzenesulfonamide] | 25.2 | 334 |
| COc1ccccc1/C=N/NC(=O)C1CCN(C(=O)c2ccc(S(N)(=O)=O)cc2)CC1 [compound 7, (E)-4-(4-(2-(2-methoxybenzylidene)hydrazinecarbonyl)piperidine-1-carbonyl)benzenesulfonamide] | 2.94 | 45.5 |

Other lines, results leading:

| Ki (hCA II) [nM] | Ki (hCA I) [nM] | SMILES |
| --- | --- | --- |
| 44.3 | 382 | COc1cccc(/C=N/NC(=O)C2CCN(C(=O)c3ccc(S(N)(=O)=O)cc3)CC2)c1 [compound 8, (E)-4-(4-(2-(3-methoxybenzylidene)hydrazinecarbonyl)piperidine-1-carbonyl)benzenesulfonamide] |
| 37.4 | 1750 | NS(=O)(=O)c1ccc(C(=O)N2CCC(C(=O)N/N=C/c3ccc(C(F)(F)F)cc3)CC2)cc1 [compound 18, (E)-4-(4-(2-(4-(trifluoromethyl)benzylidene)hydrazinecarbonyl)piperidine-1-carbonyl)benzenesulfonamide] |
| 4.41 | 18.5 | NS(=O)(=O)c1ccc(C(=O)N2CCC(C(=O)N/N=C/c3ccccc3)CC2)cc1 [compound 5, (E)-4-(4-(2-benzylidenehydrazinecarbonyl)piperidine-1-carbonyl)benzenesulfonamide] |
| 55.4 | 398 | NS(=O)(=O)c1ccc(C(=O)N2CCC(C(=O)N/N=C/c3cccc(Cl)c3)CC2)cc1 [compound 24, (E)-4-(4-(2-(3-chlorobenzylidene)hydrazinecarbonyl)piperidine-1-carbonyl)benzenesulfonamide] |
| 46.2 | 1820 | NS(=O)(=O)c1ccc(C(=O)N2CCC(C(=O)N/N=C/c3cccc([N+](=O)[O-])c3)CC2)cc1 [compound 21, (E)-4-(4-(2-(3-nitrobenzylidene)hydrazinecarbonyl)piperidine-1-carbonyl)benzenesulfonamide] |
| 209 | 4000 | NS(=O)(=O)c1ccc(C(=O)N2CCC(C(=O)N/N=C/c3ccc4ccccc4c3)CC2)cc1 [compound 16, (E)-4-(4-(2-((naphthalen-2-yl)methylene)hydrazinecarbonyl)piperidine-1-carbonyl)benzenesulfonamide] |
| 5.62 | 3240 | Cc1ccc(/C=N/NC(=O)C2CCN(C(=O)c3ccc(S(N)(=O)=O)cc3)CC2)cc1 [compound 6, (E)-4-(4-(2-(4-methylbenzylidene)hydrazinecarbonyl)piperidine-1-carbonyl)benzenesulfonamide] |
| 92.4 | 392 | NS(=O)(=O)c1ccc(C(=O)N2CCC(C(=O)N/N=C/c3cccc(F)c3)CC2)cc1 [compound 19, (E)-4-(4-(2-(3-fluorobenzylidene)hydrazinecarbonyl)piperidine-1-carbonyl)benzenesulfonamide] |
| 4.48 | 389 | COc1ccc(/C=N/NC(=O)C2CCN(C(=O)c3ccc(S(N)(=O)=O)cc3)CC2)cc1 [compound 9, (E)-4-(4-(2-(4-methoxybenzylidene)hydrazinecarbonyl)piperidine-1-carbonyl)benzenesulfonamide] |
| 4.92 | 384 | NS(=O)(=O)c1ccc(C(=O)N2CCC(C(=O)N/N=C/c3ccc([N+](=O)[O-])cc3)CC2)cc1 [compound 22, (E)-4-(4-(2-(4-nitrobenzylidene)hydrazinecarbonyl)piperidine-1-carbonyl)benzenesulfonamide] |
| 3.64 | 800 | NS(=O)(=O)c1ccc(C(=O)N2CCC(C(=O)N/N=C/c3cc(Cl)ccc3Cl)CC2)cc1 [compound 26, (E)-4-(4-(2-(2,5-dichlorobenzylidene)hydrazinecarbonyl)piperidine-1-carbonyl)benzenesulfonamide] |
| 6.51 | 482 | NS(=O)(=O)c1ccc(C(=O)N2CCC(C(=O)N/N=C/c3ccccc3Cl)CC2)cc1 [compound 23, (E)-4-(4-(2-(2-chlorobenzylidene)hydrazinecarbonyl)piperidine-1-carbonyl)benzenesulfonamide] |
| 17.1 | 340 | NS(=O)(=O)c1ccc(C(=O)N2CCC(C(=O)N/N=C/c3ccc(F)cc3)CC2)cc1 [compound 20, (E)-4-(4-(2-(4-fluorobenzylidene)hydrazinecarbonyl)piperidine-1-carbonyl)benzenesulfonamide] |
